Results published in ChEMBL document CHEMBL4819042, “Aromatic and Aliphatic Apiuronides from the Bark of Cinnamomum cassia” (J Nat Prod, 2021).
Calls of active or inactive are those of the source. The calls are words filed in the database; no cut-off is given here.

Test system: Mus musculus
Assay: Analgesic activity against paclitaxel-induced cold allodynia in C57BL/6 mouse model at 10 mg/kg, po administered at day 14 and day 25 of post paclitaxel stimulation and measured after 1 hr
Format: functional, organism-based

SMILES	Activity
CC1=C(C(C)CO[C@@H]2O[C@H](CO)[C@@H](O)[C@H](O)[C@H]2O)C[C@@]2(O)[C@@]3(C)CC(=O)O[C@@H]4[C@@H](C)CC[C@@]3(O)[C@@]4(O)[C@@]12O (some centres undefined)	Active
COc1cc([C@H]2OC[C@H]3[C@@H]2CO[C@@H]3c2cc(OC)c(O)c(OC)c2)cc(OC)c1O	Active
CC(C)[C@@]1(O)CC2(O)[C@@]3(O)[C@]45O[C@](O)(C[C@@]2(C)[C@@]4(O)CC[C@H](C)[C@H]5O)[C@@]31C	Active
COc1cc(O[C@@H]2O[C@H](CO[C@@H]3OC[C@](O)(CO)[C@H]3O)[C@@H](O)[C@H](O)[C@H]2O)cc(OC)c1OC	Active
